Measurements: patent US20240360119A1, “SMALL MOLECULE UREA DERIVATIVES AS STING ANTAGONISTS” (CURADEV PHARMA PVT. LTD., priority 2021, published 2024)

What follows are compounds tested on STING (IRF pathway reporter in THP1-Dual™ cells, THP-1 (HAQ)) (assay: Reporter gene expression assay in THP-1 cells (THP1-Dual, IRF pathway Lucia luciferase, 2′,3′-cGAMP stimulation)). Conditions: 10 min preincubation, 5 μM 2′,3′-cGAMP, 20 hr, IRF pathway luciferase (QUANTI-Luc), IC50 range class.
Assay type: cell-based, human
Description: THP1-Dual™ cells (Invivogen) were derived from the human THP-1 monocyte cell line by stable integration of two inducible reporter constructs. As a result, THP1-Dual™ cells allow the simultaneous study of the IRF pathway, by assessing the activity of a secreted luciferase (Lucia) and the NF-κB pathway, by monitoring the activity of secreted SEAP. 5×10^4 THP1-Dual™ cells were seeded in 384-well plates in growth medium and preincubated with novel compounds for 10 minutes followed by stimulation with 5 μM 2′,3′-cGAMP. After 20 hr of stimulation the supernatant was removed and the IRF pathway reporter protein was readily measured in the cell culture supernatant using QUANTI-Luc™ (Invivogen), a luciferase detection reagent on a Spectramax i3X luminometer.
In the tables below, IC50 value ranges for exemplary compounds are given. The IC50 ranges are indicated as “A” for values less than or equal to 1 μM, “B” for values greater than 1 μM and less than or equal to 10 μM, and “C” for values greater than 10 μM.
Work on `CN(C)C(=O)CC(NC(=O)Nc1ccc2cc[nH]c2c1)c1ccc2c(c1)N(Cc1ccccc1)CCS2` (single isomer, unassigned) [Example 6, 3-(3-(1H-indol-6-yl)ureido)-3-(4-benzyl-3,4-dihydro-2H-benzo[b][1,4]thiazin-6-yl)-N,N-dimethylpropanamide] yielded an IC50 of 1000 to 10000 nM. For `O=C(Nc1ccc2cc[nH]c2c1)NC(CO)c1ccc2c(c1)N(Cc1ccccc1)CCS2` (single isomer, unassigned) [Example 13, 1-(1-(4-benzyl-3,4-dihydro-2H-benzo[b][1,4]thiazin-6-yl)-2-hydroxyethyl)-3-(1H-indol-6-yl)urea], the IC50 was ≤ 1000 nM.

Same assay, conditions: Homo sapiens, 10 min preincubation, 5 μM 2′,3′-cGAMP, 20 hr, IRF pathway luciferase (QUANTI-Luc), IC50 range class
With `CN(CCO)C(=O)CC(NC(=O)Nc1ccc2cc[nH]c2c1)c1ccc2c(c1)N(Cc1ccccc1)CCS2` (stereo not shown) [Example 31, 3-(3-(1H-indol-6-yl)ureido)-3-(4-benzyl-3,4-dihydro-2H-benzo[b][1,4]thiazin-6-yl)-N-(2-hydroxyethyl)-N-methylpropanamide] the IC50 was 1000 to 10000 nM. With `O=C(NCc1ccc2c(c1)N(c1ccccc1)CCO2)Nc1ccc2cc[nH]c2c1` [Example 19, 1-(1H-indol-6-yl)-3-((4-phenyl-3,4-dihydro-2H-benzo[b][1,4]oxazin-6-yl)methyl)urea] the IC50 was ≤ 1000 nM. In the case of `O=C(NCc1ccc2c(c1)SCCN2c1ccccc1)Nc1ccc2cc[nH]c2c1` [Example 20, 1-(1H-indol-6-yl)-3-((4-phenyl-3,4-dihydro-2H-benzo[b][1,4]thiazin-7-yl)methyl)urea], the IC50 is reported as 1000 to 10000 nM. `O=C(Nc1ccc2cc[nH]c2c1)NC(CC(O)CO)c1ccc2c(c1)N(Cc1ccccc1)CCO2` (single isomer, unassigned) [Example 7, 1-(1-(4-Benzyl-3,4-dihydro-2H-benzo[b][1,4]oxazin-6-yl)-3,4-dihydroxybutyl)-3-(1H-indol-6-yl)urea] was tested, and the IC50 was > 10000 nM. In the case of `O=C(NCc1ccc2c(c1)OCCN2c1ccccc1)Nc1ccc2cc[nH]c2c1` [Example 21, 1-(1H-indol-6-yl)-3-((4-phenyl-3,4-dihydro-2H-benzo[b][1,4]oxazin-7-yl)methyl)urea], the IC50 is reported as ≤ 1000 nM. `O=C(Nc1ccc2cc[nH]c2c1)NC(CC(O)CO)c1ccc2c(c1)N(Cc1ccccc1)CC[S+]2[O-]` (stereo not shown) [Example 25, 1-(1-(4-benzyl-1-oxido-3,4-dihydro-2H-benzo[b][1,4]thiazin-6-yl)-3,4-dihydroxybutyl)-3-(1H-indol-6-yl)urea] was tested, and the IC50 was > 10000 nM. In the case of `CNC(=O)CC(NC(=O)Nc1ccc2cc[nH]c2c1)c1ccc2c(c1)N(Cc1ccccc1)CCS2` (stereo not shown) [Example 26, 3-(3-(1H-indol-6-yl)ureido)-3-(4-benzyl-3,4-dihydro-2H-benzo[b][1,4]thiazin-6-yl)-N-methylpropanamide], the IC50 is reported as 1000 to 10000 nM. Compound `CON(C)C(=O)CC(NC(=O)Nc1ccc2cc[nH]c2c1)c1ccc2c(c1)N(Cc1ccccc1)CCS2` (stereo not shown) [Example 28, 3-(3-(1H-indol-6-yl)ureido)-3-(4-benzyl-3,4-dihydro-2H-benzo[b][1,4]thiazin-6-yl)-N-methoxy-N-methylpropanamide] has an IC50 of 1000 to 10000 nM. `CN(C)C(=O)CC(NC(=O)Nc1ccc2cc[nH]c2c1)c1ccc2c(c1)N(Cc1ccccc1)CCS2` (single isomer, unassigned) [Example 5, 3-(3-(1H-indol-6-yl)ureido)-3-(4-benzyl-3,4-dihydro-2H-benzo[b][1,4]thiazin-6-yl)-N,N-dimethylpropanamide] was tested, and the IC50 was 1000 to 10000 nM. `O=C(O)CC(NC(=O)Nc1ccc2cc[nH]c2c1)c1ccc2c(c1)N(Cc1ccccc1)CCS2` (stereo not shown) [Example 10, 3-(3-(1H-Indol-6-yl)ureido)-3-(4-benzyl-3,4-dihydro-2H-benzo[b][1,4]thiazin-6-yl)propanoic acid] was tested, and the IC50 was > 10000 nM. In the case of `O=C(NCc1ccc2c(c1)SCCN2Cc1ccccc1)Nc1ccc2cc[nH]c2c1` [Example 16, 1-((4-benzyl-3,4-dihydro-2H-benzo[b][1,4]thiazin-7-yl)methyl)-3-(1H-indol-6-yl)urea], the IC50 is reported as ≤ 1000 nM. With `C=CCC(NC(=O)Nc1ccc2cc[nH]c2c1)c1ccc2c(c1)N(Cc1ccccc1)CCS2` (stereo not shown) [Example 9, 1-(1-(4-Benzyl-3,4-dihydro-2H-benzo[b][1,4]thiazin-6-yl)but-3-en-1-yl)-3-(1H-indol-6-yl)urea] the IC50 was ≤ 1000 nM. `CN(C)C(=O)CC(NC(=O)Nc1ccc2cc[nH]c2c1)c1ccc2c(c1)N(Cc1ccccc1)CCS2` (racemic) [Example 4, 3-(3-(1H-indol-6-yl)ureido)-3-(4-benzyl-3,4-dihydro-2H-benzo[b][1,4]thiazin-6-yl)-N,N-dimethylpropanamide] gave an IC50 of 1000 to 10000 nM. In the case of `O=C(Nc1ccc2cc[nH]c2c1)NC(CCO)c1ccc2c(c1)N(Cc1ccccc1)CCS2` (stereo not shown) [Example 24, 1-(1-(4-benzyl-3,4-dihydro-2H-benzo[b][1,4]thiazin-6-yl)-3-hydroxypropyl)-3-(1H-indol-6-yl)urea], the IC50 is reported as > 10000 nM. Work on `C=CCC(NC(=O)Nc1c[nH]c2ccccc12)c1ccc2c(c1)N(Cc1ccccc1)CCS2` (stereo not shown) [Example 37, 1-(1-(4-benzyl-3,4-dihydro-2H-benzo[b][1,4]thiazin-6-yl)but-3-en-1-yl)-3-(1H-indol-3-yl)urea] yielded an IC50 of 1000 to 10000 nM. `O=C(Nc1ccc2cc[nH]c2c1)NC(CO)c1ccc2c(c1)N(Cc1ccccc1)CCS2` (single isomer, unassigned) [Example 12, 1-(1-(4-benzyl-3,4-dihydro-2H-benzo[b][1,4]thiazin-6-yl)-2-hydroxyethyl)-3-(1H-indol-6-yl)urea] was tested, and the IC50 was ≤ 1000 nM. For `O=C(NCc1ccc2c(c1)N(Cc1ccccc1)CCS2)Nc1ccc2cc[nH]c2c1` [Example 1, 1-((4-Benzyl-3,4-dihydro-2H-benzo[b][1,4]thiazin-6-yl)methyl)-3-(1H-indol-6-yl)urea], the IC50 was ≤ 1000 nM. With `O=C(NCc1ccc2c(c1)N(c1ccccc1)CCS2)Nc1ccc2cc[nH]c2c1` [Example 14, 1-(1H-Indol-6-yl)-3-((4-phenyl-3,4-dihydro-2H-benzo[b][1,4]thiazin-6-yl)methyl)urea] the IC50 was ≤ 1000 nM. `O=C(Nc1ccc2cc[nH]c2c1)NC(CC(=O)N1CCC(O)C1)c1ccc2c(c1)N(Cc1ccccc1)CCS2` (stereo not shown) [Example 29, 1-(1-(4-benzyl-3,4-dihydro-2H-benzo[b][1,4]thiazin-6-yl)-3-(3-hydroxypyrrolidin-1-yl)-3-oxopropyl)-3-(1H-indol-6-yl)urea] was tested, and the IC50 was > 10000 nM. With `C=CCC(NC(=O)Nc1ccc2cc[nH]c2c1)c1ccc2c(c1)N(Cc1c(F)cccc1Cl)CCS2` (stereo not shown) [Example 36, 1-(1-(4-(2-chloro-6-fluorobenzyl)-3,4-dihydro-2H-benzo[b][1,4]thiazin-6-yl)but-3-en-1-yl)-3-(1H-indol-6-yl)urea] the IC50 was ≤ 1000 nM. In the case of `O=C(Nc1ccc2cc[nH]c2c1)NC(CC(=O)N1CCCC1)c1ccc2c(c1)N(Cc1ccccc1)CCS2` (stereo not shown) [Example 27, 1-(1-(4-benzyl-3,4-dihydro-2H-benzo[b][1,4]thiazin-6-yl)-3-oxo-3-(pyrrolidin-1-yl)propyl)-3-(1H-indol-6-yl)urea], the IC50 is reported as 1000 to 10000 nM. `O=C(NCc1ccc2c(c1)OCCN2Cc1ccccc1)Nc1ccc2cc[nH]c2c1` [Example 3, 1-((4-Benzyl-3,4-dihydro-2H-benzo[b][1,4]oxazin-7-yl)methyl)-3-(1H-indol-6-yl)urea] was tested, and the IC50 was ≤ 1000 nM. `O=C(CC(NC(=O)Nc1ccc2cc[nH]c2c1)c1ccc2c(c1)N(Cc1ccccc1)CCS2)NCCO` (stereo not shown) [Example 35, 3-(3-(1H-indol-6-yl)ureido)-3-(4-benzyl-3,4-dihydro-2H-benzo[b][1,4]thiazin-6-yl)-N-(2-hydroxyethyl)propanamide] gave an IC50 of 1000 to 10000 nM.
